Values of other authors in patent publication US9149493B2, “Compositions for bowel cleansing and use thereof” (ALFA WASSERMANN SPA, priority 2011, dated 2015).

Conditions: administered alone; eliminated unchanged in urine

For “citric acid and sodium citrate [citrates]”, the “absorption of citrates in the small intestine” value is given as “almost entirely absorbed”.
